Experimental data reported in patent US12391679B2, “Benzamide-substituted bicyclic imidazo- and pyrazolo-fused -pyridine, -pyrimide, and -pyridazine compounds for treatment of inflammatory diseases” (ONCO3R Therapeutics BV, priority 2019, dated 2025).

How the values were obtained:
[1] = target: T1, SIK2 (Homo sapiens, UniProt Q9H0K1); experiment: ADP-Glo kinase assay, SIK2; type: biochemical
T1 construct: purchased ThermoFisher Scientific PV4792
Method in brief: (§1)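 Steps: add enzyme–substrate mixture; start with diluted ATP; incubate RT 120 min; add ADP-Glo Reagent to terminate and remove unconsumed ATP, 40 min; add detection reagent, 30 min; read luminescence. DMSO at 1% and staurosporine at 10 μM (final) define assay windows.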

[2] = tested on: LPS-induced TNFα in monocytes; experiment: Monocytes assay: LPS-triggered TNFα (ELISA); type: cell-based, human; details: Homo sapiens, Monocyte, LPS-triggered TNFα inhibition
Protocol: (§2) This assay evaluates illustrative compounds of the invention for their inhibition of LPS-induced TNFα and LPS triggered IL-10 secretion in monocytes.
(§3) PBMCs are isolated from human blood samples (buffycoats). The buffy coat is aseptically transferred into a 50 mL Falcon tube, and diluted 1/2 in PBS. Falcon tubes are filled with 20 mL Lymphoprep™, on top of which 25 mL of the buffy coat is carefully added, tubes are centrifuged for 35 min at 400 g in temperature controlled centrifuge, without brake, at 25° C. PBMCs are aspirated from the white interface layer between sample and Lymphoprep™. PBMCs are washed five times in PBS.
(§4) PBMCs are centrifuged at 300×g for 10 min and resuspended at a density of 1.0*10^7 cells/80 μL Miltenyi buffer (PBS, pH 7.4, 1% FBS, 2 mM EDTA).
(§5) Starting from this point of the protocol all steps are performed on ice. 20 μL of CD14+ micro-beads are added per 1.0*10^7 cells, the tube is mixed and incubated for 15 min in the fridge at 4° C. Cell suspension volume is adjusted to total volume of 100 mL using Miltenyi buffer, mixed gently and subsequently centrifuged for 10 min at 300×g. Supernatant is discarded and cell pellet is resuspended in 12 mL of Miltenyi buffer.
(§6) Four LS columns are placed in the MACS Separator (magnet) from Miltenyi Biotec, and are prewet by rinsing with 3 mL of MACS buffer per column. Three mL of cell suspension is added onto the column (max 1*10^8 of labelled cells/column), and columns are subsequently washed 3 times with 3 mL of Miltenyi buffer.
(§7) The columns are removed from the magnets, and 5 mL of Miltenyi buffer are added to the column to flush out the CD14+ fraction by pushing the plunger into the column. The flushed fractions are collected in a fresh 50 mL Falcon and volume is adjusted to 30 mL using Miltenyi buffer, cells are centrifuged for 10 min at 300×g. The obtained cell pellet is resuspended in 10 mL RPMI w/o FBS, and cell density is determined using a hematologic analyser (Sysmex XS-500i).
(§8) A compound dilution plate is made in 100% DMSO by 3-fold dilution of 10 mM stock solution. An intermediate dilution plate (10× final concentration) is made by diluting the compound dilution plate 50-fold in RPMI medium.
(§9) 10 μL of the 10× final concentration compound is added to the cells and incubated for 1 h at 37° C. before addition of trigger. No trigger conditions/trigger conditions are spiked with equal final DMSO concentrations of 0.2% DMSO. 10 μL of 10×LPS (final conc. 200 ng/mL) solution are added to all wells except for the ‘no trigger wells’ where 10 μL medium is added. Supernatant is collected after 4 h of LPS triggering.
The plate is then washed once with PBST (PBS+0.05% Tween20) and once with PBS followed by the addition of 100 μL of blocking buffer (1% Bovine Serum Albumin (BSA)-5% Sucrose) and plates are sealed and incubated for at least 4 h at RT. After washing the plate once with PBST and once with PBS, […]. Plates are washed twice with PBST, and once with PBS, after which 35 μL of the detection antibody is added (final concentration 0.25 μg/mL diluted in dilution buffer) and plates are incubated for at least 2 h at RT. Plates are washed twice with PBST, and once with PBS, whereafter 35 μL of Strep-HRP conjugate (0.5 μg/mL final concentration diluted in dilution buffer) is added. Plates are incubated in the dark, at RT for at least 45 min but no longer than 1 h. Plates are washed twice with PBST, and once with PBS. Thereafter, 50 μL of luminol substrate is added to each well (prepared according to manufacturer's instructions), and incubated for 5 min at RT protected from light.
To measure the inhibition of LPS induced TNFα, percentage inhibition (PIN) values are calculated for all concentrations tested, compared to controls.

[3] = tested on: LPS triggered IL-10 secretion in monocytes; experiment: Monocytes assay: LPS-triggered IL-10 (ELISA); type: cell-based, human; details: Homo sapiens, Monocyte, LPS-triggered IL-10 induction, median maximal fold change vs LPS only, read-out: IL-10 FCmax median
Protocol: as §2, §3, §4, §5, §6, §7, §8, §9
A Lumitrac 600 Greiner 384-well plate is coated with 40 μL of capture antibody (final concentration of 1 μg/mL in 1×PBS) and stored overnight at 4° C. The next day the plate is washed three times with PBST (PBS+0.05% Tween20) and once with PBS followed by the addition of 100 μL of blocking buffer (1% BSA-5% Sucrose) and plates are sealed and incubated for at least 4 h at RT. After washing the plate once with PBST and once with PBS, 40 μL of standard or sample are added (IL-10 standard curve is prepared using a 1/2 serial dilution starting from 2000 pg/mL; dilutions are made in dilution buffer (PBS+1% BSA)). […] Plates are washed twice with PBST, and once with PBS, whereafter 35 μL of Strep-HRP conjugate (0.5 μg/mL final concentration diluted in dilution buffer) is added. Plates are incubated in the dark, at RT for at least 45 min but no longer than 1 h. Plates are washed twice with PBST, and once with PBS. Thereafter, 50 μL of luminol substrate is added to each well (prepared according to manufacturer's instructions), and incubated for 5 min at RT protected from light.
To quantify these increases, fold changes (FC) compared to ‘LPS only’ are calculated for each concentration tested and the maximal FC is calculated (IL-10 FCmax): […]

[4] = target: T2, SIK3 (Homo sapiens, UniProt Q9Y2K2); experiment: ADP-Glo kinase assay, SIK3; type: biochemical
T2 construct: purchased SignalChem S12-11G-100
T2 sequence (Q9Y2K2 59-365 limits assumed): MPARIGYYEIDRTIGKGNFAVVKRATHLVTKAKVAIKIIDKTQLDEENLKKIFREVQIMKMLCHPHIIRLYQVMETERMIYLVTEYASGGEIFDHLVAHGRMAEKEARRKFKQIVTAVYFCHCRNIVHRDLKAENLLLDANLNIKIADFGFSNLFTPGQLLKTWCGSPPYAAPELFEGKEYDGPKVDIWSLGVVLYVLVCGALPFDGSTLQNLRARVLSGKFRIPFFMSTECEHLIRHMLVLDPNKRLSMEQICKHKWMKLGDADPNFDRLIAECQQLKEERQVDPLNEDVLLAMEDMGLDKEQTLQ
Method in brief: as §1

[5] = target: T3, SIK1 (Homo sapiens, UniProt P57059); experiment: ADP-Glo kinase assay, SIK1; type: biochemical
T3 construct: purchased Carna Biosciences 02-131
T3 sequence (P57059 whole entry): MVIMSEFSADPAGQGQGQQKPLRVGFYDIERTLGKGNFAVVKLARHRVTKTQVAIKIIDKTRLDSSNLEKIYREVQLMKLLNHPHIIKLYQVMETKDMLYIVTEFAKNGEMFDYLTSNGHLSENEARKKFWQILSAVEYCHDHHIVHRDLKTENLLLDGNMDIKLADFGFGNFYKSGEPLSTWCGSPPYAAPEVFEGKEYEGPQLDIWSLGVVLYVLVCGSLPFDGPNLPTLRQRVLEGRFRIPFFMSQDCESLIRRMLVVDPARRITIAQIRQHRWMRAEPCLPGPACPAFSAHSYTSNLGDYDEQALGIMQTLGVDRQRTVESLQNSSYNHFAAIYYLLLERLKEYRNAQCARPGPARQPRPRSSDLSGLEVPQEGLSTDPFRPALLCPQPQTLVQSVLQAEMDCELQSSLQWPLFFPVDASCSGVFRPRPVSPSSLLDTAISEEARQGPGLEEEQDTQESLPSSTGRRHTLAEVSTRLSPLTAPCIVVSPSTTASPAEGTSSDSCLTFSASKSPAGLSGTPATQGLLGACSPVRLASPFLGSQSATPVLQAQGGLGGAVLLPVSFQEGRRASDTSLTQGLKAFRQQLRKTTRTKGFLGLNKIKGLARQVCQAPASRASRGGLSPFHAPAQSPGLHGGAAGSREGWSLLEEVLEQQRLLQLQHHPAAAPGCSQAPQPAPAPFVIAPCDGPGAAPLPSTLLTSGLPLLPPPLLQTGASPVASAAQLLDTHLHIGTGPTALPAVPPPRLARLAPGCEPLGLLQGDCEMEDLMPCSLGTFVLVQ
Method in brief: as §1

[6] = tested on: LPS-induced TNFα in monocyte-derived macrophages; experiment: MdM assay: LPS-triggered TNFα (ELISA); type: cell-based, human; details: Macrophage; human MdM; LPS 200 ng/mL; supernatant after 20 h; inhibition of TNFα; read-out: TNFα EC50
Protocol: This assay evaluates illustrative compounds of the invention for their inhibition of LPS-induced TNFα and LPS triggered IL-10 secretion in monocyte-derived macrophages. PBMCs are isolated from human blood samples (buffycoats). The buffy coat is aseptically transferred into a 50 mL Falcon tube, and diluted 1/2 in PBS. Falcon tubes are filled with 20 mL LymphoprepTM, on top of which 25 mL of the buffy coat is carefully added, tubes are centrifuged for 35 min at 400 g in temperature controlled centrifuge, without brake, at 25° C. PBMCs are aspirated from the white interface layer between sample and LymphoprepTM. PBMCs are washed five times in PBS. […] PBMCs are centrifuged at 300×g for 10 min and resuspended at a density of 1.0*10^7 cells/80 μL Miltenyi buffer (PBS, pH 7.4, 1% FBS, 2 mM EDTA). Starting from this point of the protocol all steps are performed on ice. 20 μL of CD14+ micro-beads are added per 1.0*10^7 cells, the tube is mixed and incubated for 15 min in the fridge at 4° C. Cell suspension volume is adjusted to total volume of 100 mL using Miltenyi buffer, mixed gently and subsequently centrifuged for 10 min at 300×g. Supernatant is discarded and cell pellet is resuspended in 12 mL of Miltenyi buffer. Four LS columns are placed in the MACS Separator (magnet) from Miltenyi Biotec, and are prewet by rinsing with 3 mL of MACS buffer per column. Three mL of cell suspension is added onto the column (max 1*10^8 of labelled cells/column), and columns are subsequently washed 3 times with 3 mL of Miltenyi buffer. The columns are removed from the magnets, and 5 mL of Miltenyi buffer are added to the column to flush out the CD14+ fraction by pushing the plunger into the column. The flushed fractions are collected in a fresh 50 mL Falcon and volume is adjusted to 30 mL using Miltenyi buffer, cells are centrifuged for 10 min at 300×g. The obtained cell pellet is resuspended in 10 mL RPMI w/o FBS, and cell density is determined using a hematologic analyser (Sysmex XS-500i). […] On day 10, MdMs are triggered and compound is added. A compound dilution plate is made in 100% DMSO by 3-fold dilution of 10 mM stock solution. An intermediate dilution plate (10× final concentration) is made by diluting the compound dilution plate […] in RPMI medium. Medium is carefully removed from cell plates using multichannel pipette, and replaced by 80 μL fresh medium. 10 μL of the 10× final concentration compound is added to the cells and incubated for 1 hour at 37° C. before addition of trigger. No trigger conditions/trigger conditions are spiked with equal final DMSO concentrations of 0.2% DMSO. 10 μL of 10×LPS (final conc. 200 ng/mL) solution are added to all wells except for the 'no trigger wells' where 10 μL medium is added. Supernatant is collected after 2 h (IL-10 determination) and after 20 h (TNFα determination) of LPS triggering. […] The plate is then washed once with PBST (PBS+0.05% Tween20) and once with PBS followed by the addition of 100 μL of blocking buffer (1% Bovine Serum Albumin (BSA) -5% Sucrose) and plates are sealed and incubated for at least 4 h at RT. After washing the plate once with PBST and once with PBS, 40 μL of standard or sample are added (TNFα standard curve is prepared using a 1/2 serial dilution starting from 16000 pg/mL; dilutions are made in dilution buffer (PBS+1% BSA)). Plates are washed twice with PBST, and once with PBS, after which 35 μL of the detection antibody is added (final concentration 0.25 μg/mL diluted in dilution buffer) and plates are incubated for at least 2 h at RT. Plates are washed twice with PBST, and once with PBS, where after 35 μL of Strep-HRP conjugate (0.5 μg/mL final concentration diluted in dilution buffer) is added. […] Plates are washed twice with PBST, and once with PBS. Thereafter, 50 μL of luminol substrate is added to each well (prepared according to manufacturer's instructions), and incubated for 5 min at RT protected from light.

T1 sequence (Q9H0K1 whole entry): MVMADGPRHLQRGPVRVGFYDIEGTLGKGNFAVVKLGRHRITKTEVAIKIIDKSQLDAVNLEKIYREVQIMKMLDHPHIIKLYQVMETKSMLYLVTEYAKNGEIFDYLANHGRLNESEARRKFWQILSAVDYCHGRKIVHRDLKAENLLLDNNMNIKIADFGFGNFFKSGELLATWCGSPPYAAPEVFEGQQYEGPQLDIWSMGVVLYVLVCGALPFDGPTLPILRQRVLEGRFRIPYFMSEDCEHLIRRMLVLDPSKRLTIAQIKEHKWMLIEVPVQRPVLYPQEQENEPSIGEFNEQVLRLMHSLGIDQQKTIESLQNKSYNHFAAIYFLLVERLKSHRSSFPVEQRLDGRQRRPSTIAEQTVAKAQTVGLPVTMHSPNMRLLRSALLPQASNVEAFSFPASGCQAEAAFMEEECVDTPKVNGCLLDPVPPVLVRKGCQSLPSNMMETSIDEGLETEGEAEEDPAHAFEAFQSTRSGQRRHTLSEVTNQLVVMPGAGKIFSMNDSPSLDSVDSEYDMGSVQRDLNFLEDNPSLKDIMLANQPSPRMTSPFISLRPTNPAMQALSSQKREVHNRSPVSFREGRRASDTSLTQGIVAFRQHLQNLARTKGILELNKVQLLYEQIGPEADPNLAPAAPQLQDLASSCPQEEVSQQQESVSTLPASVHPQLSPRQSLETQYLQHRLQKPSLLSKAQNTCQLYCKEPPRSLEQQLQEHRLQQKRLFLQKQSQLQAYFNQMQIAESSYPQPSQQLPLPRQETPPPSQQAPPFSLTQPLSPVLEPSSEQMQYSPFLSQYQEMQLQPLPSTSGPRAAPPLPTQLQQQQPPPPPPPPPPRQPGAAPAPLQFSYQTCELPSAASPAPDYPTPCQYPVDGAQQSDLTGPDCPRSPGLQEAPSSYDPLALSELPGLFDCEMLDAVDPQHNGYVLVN

Structure (SMILES)	IC50 [1] [nM]	IC50 [4] [nM]	IC50 [5] [nM]	EC50 [6] [nM]	EC50 [2] [nM]	maximal fold induction [3]
COc1cc(-c2cnn3cc(C(C)(C)C#N)ccc23)cc(OC(F)F)c1C(=O)N[C@@H]1C[C@@H]1F (racemic) [Cpd 233, 4-[6-(1-cyano-1-methyl-ethyl)pyrazolo[1,5-a]pyridin-3-yl]-2-(difluoromethoxy)-N-(2-fluorocyclopropyl)-6-methoxy-benzamide]					100 to 1000	< 1.5
COc1cc(-c2cnc3cc(C4(C#N)CCCC4)ccn23)cc(OC(F)F)c1C(=O)NC1CC1 [Cpd 53, 4-[7-(1-cyanocyclopentyl)imidazo[1,2-a]pyridin-3-yl]-N-cyclopropyl-2-(difluoromethoxy)-6-methoxy-benzamide]	> 500	0.01 to 10	> 500	100 to 1000		
COc1cc(-c2cnc3cc(C(C)(C)OC)ccn23)cc(OC(F)F)c1C(=O)NC1CC1 [Cpd 120, N-cyclopropyl-2-(difluoromethoxy)-6-methoxy-4-[7-(1-methoxy-1-methyl-ethyl)imidazo[1,2-a]pyridin-3-yl]benzamide]	> 500	0.01 to 10	> 500	100 to 1000		
COc1cc(-c2cnc3cc(C(C)(O)C(C)C)ccn23)cc(OC(F)F)c1C(=O)NC1CC1 (centres unmarked) [Cpd 135, N-cyclopropyl-2-(difluoromethoxy)-4-[7-(1-hydroxy-1,2-dimethyl-propyl)imidazo[1,2-a]pyridin-3-yl]-6-methoxy-benzamide]	> 500	10 to 100	> 500	100 to 1000		
COc1cc(-c2cnn3cc(C(C)(C)C#N)ccc23)cc(OC(F)F)c1C(=O)N[C@H]1C[C@H]1F [Cpd 234, 4-[6-(1-cyano-1-methyl-ethyl)pyrazolo[1,5-a]pyridin-3-yl]-2-(difluoromethoxy)-N-[(1S,2R)-2-fluorocyclopropyl]-6-methoxy-benzamide]					100 to 1000	< 1.5

Second part, led by results:

IC50 [1] [nM]	IC50 [4] [nM]	IC50 [5] [nM]	EC50 [6] [nM]	Structure (SMILES)	EC50 [2] [nM]	maximal fold induction [3]
> 500	0.01 to 10	> 500		COc1cc(-c2cnc3cc(C(C)(C)C#N)ccn23)cc(OC(F)F)c1C(=O)N[C@@H]1C[C@H]1F (racemic) [Cpd 225, 4-[7-(1-cyano-1-methyl-ethyl)imidazo[1,2-a]pyridin-3-yl]-2-(difluoromethoxy)-N-(2-fluorocyclopropyl)-6-methoxy-benzamide]	100 to 1000	< 1.5
10 to 100	0.01 to 10	> 500	100 to 1000	COc1cc(-c2cnc3cc(C4CCCN(C)C4)ccn23)cc(OC(F)F)c1C(=O)NC1CC1 (centres unmarked) [Cpd 67, N-cyclopropyl-2-(difluoromethoxy)-6-methoxy-4-[7-(1-methyl-3-piperidyl)imidazo[1,2-a]pyridin-3-yl]benzamide]		
10 to 100	0.01 to 10	> 500	1000 to 5000	COc1cc(-c2cnc3cc(C4CCN(C)CC4)ccn23)cc(OC(F)F)c1C(=O)NC1CC1 [Cpd 68, N-cyclopropyl-2-(difluoromethoxy)-6-methoxy-4-[7-(1-methyl-4-piperidyl)imidazo[1,2-a]pyridin-3-yl]benzamide]		
